Reference: patent US9809623B2, “α4β7 peptide monomer and dimer antagonists” (Protagonist Therapeutics, Inc., priority 2014, dated 2017)
“And” between values parts separate entries of the source, which are not always exact repeats. Identical values can stand only once. Like-named read-outs stand apart in the source and are kept apart here. Numbered stars: 1 amine (or outer) side, 2 acyl side, 3 side chain; on linkers, the order of the positions; unused ones are H or OH. Bridge positions count the residues as written; N and C are the ends. Square brackets hold non-standard residues; d marks the D form. Peptide text beside a SMILES is read from it. I, II: the chains in the order shown. Phe(4-COOH) = N[C@@H](Cc1ccc(C(=O)O)cc1)C(=O)O; Phe(4-tBu) = CC(C)(C)c1ccc(C[C@H](N)C(=O)O)cc1; Diglycolyl = O=C(COCC(=O)[*:2])[*:1]; NMeR = CN[C@@H](CCCNC(=N)N)C(=O)O; β3hE = N[C@@H](CCC(=O)O)CC(=O)O; NMeK = CN[C@@H](CCCCN)C(=O)O; Pen = CC(C)(S)[C@H](N)C(=O)O

Tests used:
α4β1 = molecular target: T1, α4β1 (Homo sapiens, UniProt P05556+P13612, DEL729-798); test: α4β1-VCAM Competition ELISA; assay type: binding; details: Table 3-B, Selectivity (α4β1); range classes; read-out: α4β1 ELISA IC50
T1 construct: purchased R&D Systems 5668-A4
T1 sequence (P13612 34-977 limits assumed, stated change not applied): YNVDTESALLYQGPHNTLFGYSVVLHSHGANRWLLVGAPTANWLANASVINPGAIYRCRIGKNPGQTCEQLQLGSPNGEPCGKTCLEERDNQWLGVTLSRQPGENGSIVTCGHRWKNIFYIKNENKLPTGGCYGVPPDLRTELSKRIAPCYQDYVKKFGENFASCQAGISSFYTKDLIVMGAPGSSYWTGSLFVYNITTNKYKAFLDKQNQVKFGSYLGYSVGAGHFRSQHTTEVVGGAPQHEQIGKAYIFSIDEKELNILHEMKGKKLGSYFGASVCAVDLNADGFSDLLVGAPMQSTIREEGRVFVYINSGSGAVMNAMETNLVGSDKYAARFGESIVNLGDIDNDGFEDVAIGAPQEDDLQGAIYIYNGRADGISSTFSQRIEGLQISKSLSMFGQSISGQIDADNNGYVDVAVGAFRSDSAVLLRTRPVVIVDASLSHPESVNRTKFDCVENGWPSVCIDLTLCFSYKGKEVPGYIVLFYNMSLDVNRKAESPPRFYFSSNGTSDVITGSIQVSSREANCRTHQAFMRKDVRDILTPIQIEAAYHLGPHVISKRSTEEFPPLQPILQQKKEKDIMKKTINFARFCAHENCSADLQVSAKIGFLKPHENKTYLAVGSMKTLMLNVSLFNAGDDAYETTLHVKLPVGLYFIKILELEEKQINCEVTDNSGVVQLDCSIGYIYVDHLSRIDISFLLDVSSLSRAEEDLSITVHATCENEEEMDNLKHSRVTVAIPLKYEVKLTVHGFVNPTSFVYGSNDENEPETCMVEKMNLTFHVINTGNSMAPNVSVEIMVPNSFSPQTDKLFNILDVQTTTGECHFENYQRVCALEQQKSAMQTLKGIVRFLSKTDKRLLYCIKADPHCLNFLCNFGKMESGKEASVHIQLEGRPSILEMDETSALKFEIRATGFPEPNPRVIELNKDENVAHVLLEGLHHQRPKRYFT
T1 sequence (P05556 21-728 limits assumed, stated change not applied): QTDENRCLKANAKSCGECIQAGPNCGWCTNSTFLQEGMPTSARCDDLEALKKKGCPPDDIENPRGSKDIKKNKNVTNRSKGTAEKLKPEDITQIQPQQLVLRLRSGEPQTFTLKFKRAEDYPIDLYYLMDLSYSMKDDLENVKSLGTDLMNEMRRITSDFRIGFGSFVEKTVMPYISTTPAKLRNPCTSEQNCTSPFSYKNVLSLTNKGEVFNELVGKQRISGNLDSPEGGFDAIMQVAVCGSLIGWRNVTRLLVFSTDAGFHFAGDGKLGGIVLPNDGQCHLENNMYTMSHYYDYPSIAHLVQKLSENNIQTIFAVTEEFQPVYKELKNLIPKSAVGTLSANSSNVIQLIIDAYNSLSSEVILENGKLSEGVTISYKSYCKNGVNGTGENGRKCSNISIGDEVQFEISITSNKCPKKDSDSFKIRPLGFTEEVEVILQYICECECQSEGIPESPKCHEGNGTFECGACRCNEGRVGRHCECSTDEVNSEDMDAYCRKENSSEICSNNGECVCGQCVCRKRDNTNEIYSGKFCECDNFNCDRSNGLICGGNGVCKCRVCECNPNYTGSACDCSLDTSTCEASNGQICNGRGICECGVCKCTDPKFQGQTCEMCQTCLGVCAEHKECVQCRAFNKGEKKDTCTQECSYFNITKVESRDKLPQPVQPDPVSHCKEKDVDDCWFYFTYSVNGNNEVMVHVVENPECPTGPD
In short: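 ELISA plates were coated with VCAM-1 Fc at 400 ng/well. Peptide dilutions (highest final 100 μM) and 60 nM α4β1 were incubated 2 h at 37 °C in pH 7.6 Tris buffer containing 1 mM Mn2+ or Mg2+. Integrin retained on the plate was detected by 9F10 antibody, then HRP secondary, with TMB absorbance at 450 nm.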

rh integrin α4β7 = molecular target: T2, rh integrin α4β7 (Homo sapiens, UniProt P13612+P26010); test: α4β7-MAdCAM Competition ELISA; assay type: binding; details: Table 3-B, Potency (α4β7); range classes; read-out: α4β7 ELISA IC50
T2 construct: purchased R&D Systems 5397-A30
T2 sequence (P13612 34-977 limits assumed): as the sequence (P13612 34-977 limits assumed, stated change not applied) above
T2 sequence (P26010 20-723 limits assumed): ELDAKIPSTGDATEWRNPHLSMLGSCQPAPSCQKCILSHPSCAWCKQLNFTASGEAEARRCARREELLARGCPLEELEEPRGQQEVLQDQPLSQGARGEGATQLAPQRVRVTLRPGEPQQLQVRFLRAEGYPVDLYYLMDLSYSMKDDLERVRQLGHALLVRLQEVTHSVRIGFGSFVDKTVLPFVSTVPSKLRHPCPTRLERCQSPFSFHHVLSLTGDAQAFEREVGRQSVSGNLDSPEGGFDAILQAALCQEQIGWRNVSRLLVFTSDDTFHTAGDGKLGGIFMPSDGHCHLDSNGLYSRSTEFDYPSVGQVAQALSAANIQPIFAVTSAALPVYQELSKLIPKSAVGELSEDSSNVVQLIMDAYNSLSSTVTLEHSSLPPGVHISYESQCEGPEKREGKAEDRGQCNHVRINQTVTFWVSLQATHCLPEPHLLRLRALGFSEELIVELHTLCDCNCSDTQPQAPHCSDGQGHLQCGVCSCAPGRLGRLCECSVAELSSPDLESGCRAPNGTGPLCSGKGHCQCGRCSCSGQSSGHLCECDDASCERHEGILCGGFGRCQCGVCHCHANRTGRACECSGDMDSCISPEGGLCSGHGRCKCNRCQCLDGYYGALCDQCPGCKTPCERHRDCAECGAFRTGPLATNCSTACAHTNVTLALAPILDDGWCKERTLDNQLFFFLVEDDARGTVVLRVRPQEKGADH
In short: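 Competition read-out was A450 after anti-human IgG1-HRP and TMB detection of bound recombinant human MAdCAM-1 (10 nM final). Peptides were serially diluted 3-fold from a final 10 μM and equilibrated 1 h at room temperature on nickel-captured α4β7 (800 ng/well). The buffer was Tris pH 7.6 with 1 mM Mn2+ or Mg2+.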

[1] = Simulated Intestinal Fluid (SIF) Stability Assay; assay type: in vitro ADME, porcine; details: for half-life at 22 μM: pig, pH 6.5, Table 3-B
In short: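 Intestinal stability: percent peptide remaining over time, by LC-MS/MS peak-area ratio to internal standard, fitted to first-order decay for half-life. Conditions: 22 μM peptide, 1% pancreatin in pH 6.5 blank FASSIF, 37 °C.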

[2] = simulated intestinal fluid (SIF) with 1% porcine pancreatin, > means experiment was stopped at that time and half life was not reached, read-out: Stabilty SIF t1/2
[3] = simulated intestinal fluid (SIF) with 1% porcine pancreatin, alone or in parentheses after >360, read-out: Stabilty SIF t1/2, in hr (converted)

Compound: CC(=O)N[C@@H]1C(=O)N(C)[C@@H](CCCNC(=N)N)C(=O)N[C@@H](CO)C(=O)N[C@@H](CC(=O)O)C(=O)N[C@@H]([C@@H](C)O)C(=O)N[C@@H](CC(C)C)C(=O)N[C@H](C(=O)N[C@@H](Cc2c[nH]c3ccccc23)C(=O)N[C@@H](CCC(=O)O)C(=O)N[C@H](CCCCNC(=O)COCC(=O)NCCCC[C@@H](NC(=O)[C@H](CCC(=O)O)NC(=O)[C@H](Cc2c[nH]c3ccccc23)NC(=O)[C@H]2NC(=O)[C@H](CC(C)C)NC(=O)[C@H]([C@@H](C)O)NC(=O)[C@H](CC(=O)O)NC(=O)[C@H](CO)NC(=O)[C@H](CCCNC(=N)N)N(C)C(=O)[C@@H](NC(C)=O)C(C)(C)SSC2(C)C)C(N)=O)C(N)=O)C(C)(C)SSC1(C)C [compound 67] (I: Ac-[Pen][NMeR]SDTL[Pen]WE[dK]-NH2 / II: Ac-[Pen][NMeR]SDTL[Pen]WE[dK]-NH2; disulfide I:1-I:7, II:1-II:7; linker I:10-II:10 via Diglycolyl)
- IC50 (α4β1): 0.1 to 0.5 µM
- IC50 (rh integrin α4β7): < 0.01 µM
- half-life at 22 μM [1, 2]: 2.02 h

Compound: CC(=O)N[C@@H]1C(=O)N(C)[C@@H](CCCNC(=N)N)C(=O)N[C@@H](CO)C(=O)N[C@@H](CC(=O)O)C(=O)N[C@@H]([C@@H](C)O)C(=O)N[C@@H](CC(C)C)C(=O)N[C@H](C(=O)N[C@@H](Cc2c[nH]c3ccccc23)C(=O)N[C@H](CCC(=O)O)C(=O)N[C@H](CCCCNC(=O)COCC(=O)NCCCC[C@@H](NC(=O)[C@@H](CCC(=O)O)NC(=O)[C@H](Cc2c[nH]c3ccccc23)NC(=O)[C@H]2NC(=O)[C@H](CC(C)C)NC(=O)[C@H]([C@@H](C)O)NC(=O)[C@H](CC(=O)O)NC(=O)[C@H](CO)NC(=O)[C@H](CCCNC(=N)N)N(C)C(=O)[C@@H](NC(C)=O)C(C)(C)SSC2(C)C)C(N)=O)C(N)=O)C(C)(C)SSC1(C)C [compound 68] (I: Ac-[Pen][NMeR]SDTL[Pen]W[dE][dK]-NH2 / II: Ac-[Pen][NMeR]SDTL[Pen]W[dE][dK]-NH2; disulfide I:1-I:7, II:1-II:7; linker I:10-II:10 via Diglycolyl)
- IC50 (α4β1): 0.5 to 1 µM
- IC50 (rh integrin α4β7): < 0.01 µM
- half-life at 22 μM [1, 2]: > 5 h

Compound: CC(=O)N[C@@H]1C(=O)N(C)[C@@H](CCCNC(=N)N)C(=O)N[C@@H](CO)C(=O)N[C@@H](CC(=O)O)C(=O)N[C@@H]([C@@H](C)O)C(=O)N[C@@H](CC(C)C)C(=O)N[C@H](C(=O)N[C@@H](Cc2ccc(C(=O)O)cc2)C(=O)N[C@@H](CCC(=O)O)C(=O)N[C@H](CCCCNC(=O)COCC(=O)NCCCC[C@@H](NC(=O)[C@H](CCC(=O)O)NC(=O)[C@H](Cc2ccc(C(=O)O)cc2)NC(=O)[C@H]2NC(=O)[C@H](CC(C)C)NC(=O)[C@H]([C@@H](C)O)NC(=O)[C@H](CC(=O)O)NC(=O)[C@H](CO)NC(=O)[C@H](CCCNC(=N)N)N(C)C(=O)[C@@H](NC(C)=O)C(C)(C)SSC2(C)C)C(N)=O)C(N)=O)C(C)(C)SSC1(C)C [compound 129] (I: Ac-[Pen][NMeR]SDTL[Pen][Phe(4-COOH)]E[dK]-NH2 / II: Ac-[Pen][NMeR]SDTL[Pen][Phe(4-COOH)]E[dK]-NH2; disulfide I:1-I:7, II:1-II:7; linker I:10-II:10 via Diglycolyl)
- IC50 (α4β1): 0.1 to 0.5 µM
- IC50 (rh integrin α4β7): < 0.01 µM
- half-life at 22 μM [1, 2]: > 6 h
- half-life at 22 μM [1, 3]: 13 h

Compound: CC(=O)N[C@@H]1C(=O)N(C)[C@@H](CCCNC(=N)N)C(=O)N[C@@H](CO)C(=O)N[C@@H](CC(=O)O)C(=O)N[C@@H]([C@@H](C)O)C(=O)N[C@@H](CC(C)C)C(=O)N[C@H](C(=O)N[C@@H](Cc2ccc(C(=O)O)cc2)C(=O)N[C@@H](CCC(=O)O)CC(=O)N[C@H](CCCCNC(=O)COCC(=O)NCCCC[C@@H](NC(=O)C[C@H](CCC(=O)O)NC(=O)[C@H](Cc2ccc(C(=O)O)cc2)NC(=O)[C@H]2NC(=O)[C@H](CC(C)C)NC(=O)[C@H]([C@@H](C)O)NC(=O)[C@H](CC(=O)O)NC(=O)[C@H](CO)NC(=O)[C@H](CCCNC(=N)N)N(C)C(=O)[C@@H](NC(C)=O)C(C)(C)SSC2(C)C)C(N)=O)C(N)=O)C(C)(C)SSC1(C)C [compound 130] (I: Ac-[Pen][NMeR]SDTL[Pen][Phe(4-COOH)][β3hE][dK]-NH2 / II: Ac-[Pen][NMeR]SDTL[Pen][Phe(4-COOH)][β3hE][dK]-NH2; disulfide I:1-I:7, II:1-II:7; linker I:10-II:10 via Diglycolyl)
- IC50 (α4β1): 0.1 to 0.5 µM
- IC50 (rh integrin α4β7): < 0.01 µM
- half-life at 22 μM [1, 2]: > 6 h
- half-life at 22 μM [1, 3]: 16 h

Compound: CC(=O)N[C@@H]1C(=O)N(C)[C@@H](CCCNC(=N)N)C(=O)N[C@@H](CO)C(=O)N[C@@H](CC(=O)O)C(=O)N[C@@H]([C@@H](C)O)C(=O)N[C@@H](CC(C)C)C(=O)N[C@H](C(=O)N[C@@H](Cc2ccc(C(C)(C)C)cc2)C(=O)N[C@@H](CCC(=O)O)CC(=O)N[C@H](CCCCNC(=O)COCC(=O)NCCCC[C@@H](NC(=O)C[C@H](CCC(=O)O)NC(=O)[C@H](Cc2ccc(C(C)(C)C)cc2)NC(=O)[C@H]2NC(=O)[C@H](CC(C)C)NC(=O)[C@H]([C@@H](C)O)NC(=O)[C@H](CC(=O)O)NC(=O)[C@H](CO)NC(=O)[C@H](CCCNC(=N)N)N(C)C(=O)[C@@H](NC(C)=O)C(C)(C)SSC2(C)C)C(N)=O)C(N)=O)C(C)(C)SSC1(C)C [compound 132] (I: Ac-[Pen][NMeR]SDTL[Pen][Phe(4-tBu)][β3hE][dK]-NH2 / II: Ac-[Pen][NMeR]SDTL[Pen][Phe(4-tBu)][β3hE][dK]-NH2; disulfide I:1-I:7, II:1-II:7; linker I:10-II:10 via Diglycolyl)
- IC50 (α4β1): 0.1 to 0.5 µM and 0.5 to 1 µM
- IC50 (rh integrin α4β7): < 0.01 µM
- Stabilty SIF t1/2, in hr ([1]; Table 3-B, alone or in parentheses after >360): 11 h
- half-life at 22 μM ([1]; simulated intestinal fluid (SIF) with porcine pancreatin, > means experiment was stopped at that time and half life was not reached, read-out: Stabilty SIF t1/2): > 6 h
- half-life at 22 μM ([1]; simulated intestinal fluid (SIF) with porcine pancreatin, alone or in parentheses after >360, read-out: Stabilty SIF t1/2, in hr (converted)): 10.7 h

Compound: CC(=O)N[C@@H]1C(=O)N(C)[C@@H](CCCNC(=N)N)C(=O)N[C@@H](CO)C(=O)N[C@@H](CC(=O)O)C(=O)N[C@@H]([C@@H](C)O)C(=O)N[C@@H](CC(C)C)C(=O)N[C@H](C(=O)N[C@@H](Cc2ccc(C(=O)O)cc2)C(=O)N[C@@H](CCC(=O)O)C(=O)N(C)[C@@H](CCCCNC(=O)COCC(=O)NCCCC[C@@H](C(N)=O)N(C)C(=O)[C@H](CCC(=O)O)NC(=O)[C@H](Cc2ccc(C(=O)O)cc2)NC(=O)[C@H]2NC(=O)[C@H](CC(C)C)NC(=O)[C@H]([C@@H](C)O)NC(=O)[C@H](CC(=O)O)NC(=O)[C@H](CO)NC(=O)[C@H](CCCNC(=N)N)N(C)C(=O)[C@@H](NC(C)=O)C(C)(C)SSC2(C)C)C(N)=O)C(C)(C)SSC1(C)C [compound 147] (I: Ac-[Pen][NMeR]SDTL[Pen][Phe(4-COOH)]E[NMeK]-NH2 / II: Ac-[Pen][NMeR]SDTL[Pen][Phe(4-COOH)]E[NMeK]-NH2; disulfide I:1-I:7, II:1-II:7; linker I:10-II:10 via Diglycolyl)
- IC50 (α4β1): 0.1 to 0.5 µM
- IC50 (rh integrin α4β7): < 0.01 µM
- half-life at 22 μM [1, 2]: > 5 h

Compound: CC(=O)N[C@@H]1C(=O)N(C)[C@@H](CCCNC(=N)N)C(=O)N[C@@H](CO)C(=O)N[C@@H](CC(=O)O)C(=O)N[C@@H]([C@@H](C)O)C(=O)N[C@@H](CC(C)C)C(=O)N[C@H](C(=O)N[C@@H](Cc2ccc(C(=O)O)cc2)C(=O)N[C@@H](CCC(=O)O)CC(=O)N(C)[C@@H](CCCCNC(=O)COCC(=O)NCCCC[C@@H](C(N)=O)N(C)C(=O)C[C@H](CCC(=O)O)NC(=O)[C@H](Cc2ccc(C(=O)O)cc2)NC(=O)[C@H]2NC(=O)[C@H](CC(C)C)NC(=O)[C@H]([C@@H](C)O)NC(=O)[C@H](CC(=O)O)NC(=O)[C@H](CO)NC(=O)[C@H](CCCNC(=N)N)N(C)C(=O)[C@@H](NC(C)=O)C(C)(C)SSC2(C)C)C(N)=O)C(C)(C)SSC1(C)C [compound 148] (I: Ac-[Pen][NMeR]SDTL[Pen][Phe(4-COOH)][β3hE][NMeK]-NH2 / II: Ac-[Pen][NMeR]SDTL[Pen][Phe(4-COOH)][β3hE][NMeK]-NH2; disulfide I:1-I:7, II:1-II:7; linker I:10-II:10 via Diglycolyl)
- IC50 (α4β1): 0.1 to 0.5 µM
- IC50 (rh integrin α4β7): < 0.01 µM
- half-life at 22 μM [1, 2]: > 5 h

Compound: CC(=O)N[C@@H]1C(=O)N(C)[C@@H](CCCNC(=N)N)C(=O)N[C@@H](CO)C(=O)N[C@@H](CC(=O)O)C(=O)N[C@@H]([C@@H](C)O)C(=O)N[C@@H](CC(C)C)C(=O)N[C@H](C(=O)N[C@@H](Cc2ccc(C(C)(C)C)cc2)C(=O)N[C@@H](CCC(=O)O)CC(=O)N(C)[C@@H](CCCCNC(=O)COCC(=O)NCCCC[C@@H](C(N)=O)N(C)C(=O)C[C@H](CCC(=O)O)NC(=O)[C@H](Cc2ccc(C(C)(C)C)cc2)NC(=O)[C@H]2NC(=O)[C@H](CC(C)C)NC(=O)[C@H]([C@@H](C)O)NC(=O)[C@H](CC(=O)O)NC(=O)[C@H](CO)NC(=O)[C@H](CCCNC(=N)N)N(C)C(=O)[C@@H](NC(C)=O)C(C)(C)SSC2(C)C)C(N)=O)C(C)(C)SSC1(C)C [compound 149] (I: Ac-[Pen][NMeR]SDTL[Pen][Phe(4-tBu)][β3hE][NMeK]-NH2 / II: Ac-[Pen][NMeR]SDTL[Pen][Phe(4-tBu)][β3hE][NMeK]-NH2; disulfide I:1-I:7, II:1-II:7; linker I:10-II:10 via Diglycolyl)
- IC50 (α4β1): 0.5 to 1 µM
- IC50 (rh integrin α4β7): < 0.01 µM
- half-life at 22 μM [1, 2]: > 5 h
